Test results from patent EP3079693B1 (priority 2013, dated 2015).

Columns and labels:
[1] = biological target: influenza A RNA-dependent RNA polymerase (Influenza A virus, UniProt P03428+P03431+P03433); test: cell-based
[2] = test system: constitutive gene expression; test: Counter screen: separate reporter system with cell death-activated reporter construct (constitutive gene expression); settings: for observed toxicity or efficacy in either assay tested: antiviral and counterscreen assay; for toxicity in antiviral and counterscreen assays: at 50uM, both antiviral and counterscreen assay

Row | Structure (SMILES) | IC50 [1] | observed toxicity or efficacy in either assay tested [2] | toxicity in antiviral and counterscreen assays [2]
1 | COc1cc(OC)cc(-c2cc3nc(C)cc(NCC(C)c4ccccc4)n3n2)c1 (stereo not drawn) [A0525, 2-(3,5-dimethoxyphenyl)-5-methyl-N-(2-phenylpropyl)pyrazolo[1,5-a]pyrimidin-7-amine] | > 50 µM | >50 µM (no observed toxicity or efficacy in either assay tested) | –
2 | COc1ccc(-c2cc3nc(C)cc(NCc4ccccc4)n3n2)cc1 [A0548, N-benzyl-2-(4-methoxyphenyl)-5-methylpyrazolo[1,5-a]pyrimidin-7-amine] | > 50 µM | >50 µM (no observed toxicity or efficacy in either assay tested) | –
3 | COc1ccc(-c2cc3nc(C)c(C)c(N4CCCC4)n3n2)cc1OC [A0443, 2-(3,4-dimethoxyphenyl)-5,6-dimethyl-7-(pyrrolidin-1-yl)pyrazolo[1,5-a]pyrimidine] | > 50 µM | >50 µM (no observed toxicity or efficacy in either assay tested) | –
4 | COc1ccc(-c2cc3c(=O)[nH]nc(SCc4ccccc4Cl)n3n2)cc1OC [A0553, 7-(2-chlorobenzylthio)-2-(3,4-dimethoxyphenyl)pyrazolo[1,5-d][1,2,4]triazin-4(5H)-one] | > 50 µM | >50 µM (no observed toxicity or efficacy in either assay tested) | –
5 | COc1ccc(-c2c(C)nn3c(N4CCc5ccccc5C4)cc(C)nc23)cc1OC [A0550, 2-(3-(3,4-dimethoxyphenyl)-2,5-dimethylpyrazolo[1,5-a]pyrimidin-7-yl)-1,2,3,4-tetrahydroisoquinoline] | > 50 µM | >50 µM (no observed toxicity or efficacy in either assay tested) | –
6 | CCc1c(C)nc2cc(-c3ccc(F)cc3)nn2c1NCCc1ccccn1 [A0436, 6-ethyl-2-(4-fluorophenyl)-5-methyl-N-(2-(pyridin-2-yl)ethyl)pyrazolo[1,5-a]pyrimidin-7-amine] | > 10 µM | – | >10uM (toxic to both antiviral and counterscreen at 50uM)
7 | Clc1ccc(-c2cc3nc4c(c(NCCc5ccccn5)n3n2)CCCC4)cc1 [A0442, 2-(4-chlorophenyl)-N-(2-(pyridin-2-yl)ethyl)-5,6,7,8-tetrahydropyrazolo[5,1-b]quinazolin-9-amine] | > 10 µM | – | >10uM (toxic to both antiviral and counterscreen at 50uM)
8 | COc1ccc(-c2cc3nc4c(c(NCc5ccccc5F)n3n2)CCCC4)cc1 [A0529, N-(2-fluorobenzyl)-2-(4-methoxyphenyl)-5,6,7,8-tetrahydropyrazolo[5,1-b]quinazolin-9-amine] | > 50 µM | >50 µM (no observed toxicity or efficacy in either assay tested) | –
9 | Cc1ccc(-c2cc3nc4c(c(NCCc5ccccn5)n3n2)CCC4)cc1 [A0437, N-(2-(pyridin-2-yl)ethyl)-2-p-tolyl-6,7-dihydro-5H-cyclopenta[d]pyrazolo[1,5-a]pyrimidin-8-amine] | > 50 µM | >50 µM (no observed toxicity or efficacy in either assay tested) | –
10 | CCc1c(C)nc2cc(-c3ccc(OC)c(OC)c3)nn2c1NCc1cc(OC)ccc1OC [A0526, N-(2,5-dimethoxybenzyl)-2-(3,4-dimethoxyphenyl)-6-ethyl-5-methylpyrazolo[1,5-a]pyrimidin-7-amine] | > 50 µM | >50 µM (no observed toxicity or efficacy in either assay tested) | –
11 | COc1ccc(-c2cc3nc(-c4ccccc4)cc(NCc4ccccc4C)n3n2)cc1OC [A0528, 2-(3,4-dimethoxyphenyl)-N-(2-methylbenzyl)-5-phenylpyrazolo[1,5-a]pyrimidin-7-amine] | > 50 µM | >50 µM (no observed toxicity or efficacy in either assay tested) | –
12 | CCc1c(C)nc2cc(-c3ccc(OC)c(OC)c3)nn2c1NCCc1ccc(OC)c(OC)c1 [A0438, N-(3,4-dimethoxyphenethyl)-2-(3,4-dimethoxyphenyl)-6-ethyl-5-methylpyrazolo[1,5-a]pyrimidin-7-amine] | > 10 µM | – | >10uM (toxic to both antiviral and counterscreen at 50uM)
